For 34 compounds, IC50 results are on record in patent publication US20250066369A1, “BICYCLIC PHTHALAZIN-1(2H)-ONE DERIVATIVES AND RELATED USES” (NodThera Limited, priority 2022, published 2025).

In the assay the test system is IL-1β release upon NLRP3 activation in peripheral blood mononuclear cells (PBMC). Nature of the assay: PBMC IC50 determination assay: inhibition of IL-1β release upon NLRP3 activation. Format: cell-based. The settings on record: PBMC, PBMC primed with LPS 3 h, compound 30 min, stimulated with ATP (5 mM) or nigericin (10 μM) 1 h; IL-1β by ELISA (Protocol A) or HTRF (Protocol B). Summed up: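 Human PBMC from buffy coats were primed 3 h with LPS (1 μg/mL in Protocol B), given compound for 30 min, then stimulated 1 h with ATP (5 mM) or nigericin (10 μM; Protocol A only). Released IL-1β was quantified by ELISA at 450 nm (Protocol A) or HTRF at […] (Protocol B).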
Compound `CC(C)c1nn(CC(=O)Nc2ncco2)c(=O)c2cn(C3CC3)nc12` [Compound 73, 2-(2-Cyclopropyl-7-isopropyl-4-oxo-2,4-dihydro-5H-pyrazolo[3,4-d]pyridazin-5-yl)-N-(oxazol-2-yl)acetamide] displayed a half-inhibitory concentration (IC50) of 100 to 1000 nM.
As for `CC(C)c1nn(CC(=O)N[C@H]2C[C@@](C)(O)C2)c(=O)c2sc(Br)cc12` [Compound 74, 2-(2-Bromo-4-isopropyl-7-oxothieno[2,3-d]pyridazin-6(7H)-yl)-N-(cis-3-hydroxy-3-methylcyclobutyl)acetamide], the figure is 1000 to 3000 nM.
Take `CC(C)c1nn(CC(=O)Nc2ncccn2)c(=O)c2sc(C3CC3)cc12` [Compound 75, 2-(2-Cyclopropyl-4-isopropyl-7-oxothieno[2,3-d]pyridazin-6(7H)-yl)-N-(pyrimidin-2-yl)acetamide]: the IC50 was in the range of 100 to 1000 nM.
The compound `CC(C)c1nn(CC(=O)Nc2ncco2)c(=O)c2sc(C3CC3)cc12` [Compound 76, 2-(2-Cyclopropyl-4-isopropyl-7-oxothieno[2,3-d]pyridazin-6(7H)-yl)-N-(oxazol-2-yl)acetamide] had an IC50 of 100 to 1000 nM.
As for `CCNc1cc2c(C(C)C)nn(CC(=O)Nc3ncccn3)c(=O)c2s1` [Compound 78, 2-(2-(Ethylamino)-4-isopropyl-7-oxothieno[2,3-d]pyridazin-6(7H)-yl)-N-(pyrimidin-2-yl)acetamide], the figure is at most 100 nM; as for `CC(C)c1nn(CC(=O)Nc2ncco2)c(=O)c2cc(C3CC3)oc12` [Compound 79, 2-(2-Cyclopropyl-7-isopropyl-4-oxofuro[2,3-d]pyridazin-5(4H)-yl)-N-(oxazol-2-yl)acetamide], 100 to 1000 nM.
As for `CCOC(=O)c1cnc(NC(=O)Cn2nc(C(C)C)c3oc(C4CC4)cc3c2=O)nc1` [Compound 80, Ethyl 2-(2-(2-cyclopropyl-7-isopropyl-4-oxofuro[2,3-d]pyridazin-5(4H)-yl)acetamido)pyrimidine-5-carboxylate], the figure is 100 to 1000 nM; as for `CC(C)c1nn(CC(=O)N[C@H]2C[C@@](C)(O)C2)c(=O)c2cc(C3CC3)oc12` [Compound 81, 2-(2-Cyclopropyl-7-isopropyl-4-oxofuro[2,3-d]pyridazin-5(4H)-yl)-N-((1s,3s)-3-hydroxy-3-methylcyclobutyl)acetamide], 100 to 1000 nM.
`Cc1nn(CC(=O)Nc2ncccn2)c(=O)c2cc(C3CC3)oc12` [Compound 82, 2-{2-Cyclopropyl-7-methyl-4-oxo-4H,5H-furo[2,3-d]pyridazin-5-yl}-N-(pyrimidin-2-yl)acetamide] came in with an IC50 of 100 to 1000 nM.
For `Cc1cnc(NC(=O)Cn2nc(C)c3oc(C4CC4)cc3c2=O)nc1` [Compound 83, 2-{2-Cyclopropyl-7-methyl-4-oxo-4H,5H-furo[2,3-d]pyridazin-5-yl}-N-(5-methylpyrimidin-2-yl)acetamide] the value was 100 to 1000 nM; for `Cc1nn(CC(=O)Nc2ncc(Cl)cn2)c(=O)c2cc(C3CC3)oc12` [Compound 84, N-(5-Chloropyrimidin-2-yl)-2-{2-cyclopropyl-7-methyl-4-oxo-4H,5H-furo[2,3-d]pyridazin-5-yl}acetamide], 100 to 1000 nM; for `Cc1nn(CC(=O)N[C@H]2C[C@@](C)(O)C2)c(=O)c2cc(C3CC3)oc12` [Compound 85, 2-{2-Cyclopropyl-7-methyl-4-oxo-4H,5H-furo[2,3-d]pyridazin-5-yl}-N-[cis-3-hydroxy-3-methylcyclobutyl]acetamide], 1000 to 3000 nM.
As for `CCOC(=O)c1cnc(NC(=O)Cn2nc(C)c3cc(C4CC4)sc3c2=O)nc1` [Compound 86, Ethyl 2-(2-{2-cyclopropyl-4-methyl-7-oxo-6H,7H-thieno[2,3-d]pyridazin-6-yl}acetamido)pyrimidine-5-carboxylate], the figure is 100 to 1000 nM; as for `Cc1nn(CC(=O)Nc2ncco2)c(=O)c2cc(C3CC3)oc12` [Compound 87, 2-{2-cyclopropyl-7-methyl-4-oxo-4H,5H-furo[2,3-d]pyridazin-5-yl}-N-(1,3-oxazol-2-yl)acetamide], 1000 to 3000 nM.
`Cc1nn(CC(=O)Nc2ncccn2)c(=O)c2sc(C3CC3)cc12` [Compound 88, 2-{2-Cyclopropyl-4-methyl-7-oxo-6H,7H-thieno[2,3-d]pyridazin-6-yl}-N-(pyrimidin-2-yl)acetamide] yielded an IC50 of 100 to 1000 nM.
For `CCc1nn(CC(=O)Nc2ncccn2)c(=O)c2cc(C3CC3)oc12` [Compound 89, 2-{2-cyclopropyl-7-ethyl-4-oxo-4H,5H-furo[2,3-d]pyridazin-5-yl}-N-(pyrimidin-2-yl)acetamide] the value was 100 to 1000 nM.
As for `CCOC(=O)c1cnc(NC(=O)Cn2nc(C)c3oc(C4CC4)cc3c2=O)nc1` [Compound 90, Ethyl 2-(2-{2-cyclopropyl-7-methyl-4-oxo-4H,5H-furo[2,3-d]pyridazin-5-yl}acetamido)pyrimidine-5-carboxylate], the figure is 100 to 1000 nM; as for `Cc1nn(CC(=O)Nc2ncc(C#N)cn2)c(=O)c2cc(C3CC3)oc12` [Compound 91, N-(5-Cyanopyrimidin-2-yl)-2-{2-cyclopropyl-7-methyl-4-oxo-4H,5H-furo[2,3-d]pyridazin-5-yl}acetamide], 100 to 1000 nM; as for `CCOC(=O)Cc1cnc(NC(=O)Cn2nc(C)c3oc(C4CC4)cc3c2=O)nc1` [Compound 92, Ethyl 2-[2-(2-{2-cyclopropyl-7-methyl-4-oxo-4H,5H-furo[2,3-d]pyridazin-5-yl}acetamido)pyrimidin-5-yl]acetate], 100 to 1000 nM.
As for `CC(C)Nc1cc2c(C(C)C)nn(CC(=O)Nc3ncccn3)c(=O)c2s1` [Compound 93, 2-[7-Oxo-4-(propan-2-yl)-2-[(propan-2-yl)amino]-6H,7H-thieno[2,3-d]pyridazin-6-yl]-N-(pyrimidin-2-yl)acetamide], the figure is 100 to 1000 nM; as for `CNc1cc2c(C(C)C)nn(CC(=O)Nc3ncccn3)c(=O)c2s1` [Compound 94, 2-[2-(Methylamino)-7-oxo-4-(propan-2-yl)-6H,7H-thieno[2,3-d]pyridazin-6-yl]-N-(pyrimidin-2-yl)acetamide], at most 100 nM.
For the compound `CC(C)c1nn(CC(=O)Nc2ncccn2)c(=O)c2sc(NCC(F)F)cc12` [Compound 95, 2-{2-[(2,2-Difluoroethyl)amino]-7-oxo-4-(propan-2-yl)-6H,7H-thieno[2,3-d]pyridazin-6-yl}-N-(pyrimidin-2-yl)acetamide], the IC50 was in the range of 100 to 1000 nM.
In the case of `COCCNc1cc2c(C(C)C)nn(CC(=O)Nc3ncccn3)c(=O)c2s1` [Compound 96, 2-{2-[(2-Methoxyethyl)amino]-7-oxo-4-(propan-2-yl)-6H,7H-thieno[2,3-d]pyridazin-6-yl}-N-(pyrimidin-2-yl)acetamide], the IC50 lay within 10000 to 50000 nM.
For `CCN(C)c1cc2c(C(C)C)nn(CC(=O)Nc3ncccn3)c(=O)c2s1` [Compound 97, 2-{2-[Ethyl(methyl)amino]-7-oxo-4-(propan-2-yl)-6H,7H-thieno[2,3-d]pyridazin-6-yl}-N-(pyrimidin-2-yl)acetamide] the value was 3000 to 10000 nM; for `CCNc1cc2c(C)nn(CC(=O)Nc3ncccn3)c(=O)c2s1` [Compound 98, 2-[2-(Ethylamino)-4-methyl-7-oxo-6H,7H-thieno[2,3-d]pyridazin-6-yl]-N-(pyrimidin-2-yl)acetamide], 1000 to 3000 nM; for `CCCc1cc2c(C(C)C)nn(CC(=O)Nc3ncccn3)c(=O)c2s1` [Compound 99, 2-[7-Oxo-4-(propan-2-yl)-2-propyl-6H,7H-thieno[2,3-d]pyridazin-6-yl]-N-(pyrimidin-2-yl)acetamide], 100 to 1000 nM.
In the case of `CC(C)c1nn(CC(=O)Nc2ncccn2)c(=O)c2sc(NCC(F)(F)F)cc12` [Compound 100, 2-[7-Oxo-4-(propan-2-yl)-2-[(2,2,2-trifluoroethyl)amino]-6H,7H-thieno[2,3-d]pyridazin-6-yl]-N-(pyrimidin-2-yl)acetamide], the IC50 lay within 1000 to 3000 nM.
The compound `CC(C)c1nn(CC(=O)Nc2ncccn2)c(=O)c2sc(N)cc12` [Compound 101, 2-[2-Amino-7-oxo-4-(propan-2-yl)-6H,7H-thieno[2,3-d]pyridazin-6-yl]-N-(pyrimidin-2-yl)acetamide] displayed an IC50 of 1000 to 3000 nM.
For `CCNc1cc2c(=O)n(CC(=O)Nc3ncccn3)nc(C(C)C)c2o1` [Compound 102, 2-[2-(Ethylamino)-4-oxo-7-(propan-2-yl)-4H,5H-furo[2,3-d]pyridazin-5-yl]-N-(pyrimidin-2-yl)acetamide] the value was 100 to 1000 nM; for `Cc1nn(CC(=O)Nc2ccc3nncn3c2)c(=O)c2cc(C3CC3)oc12` [Compound 103, 2-{2-Cyclopropyl-7-methyl-4-oxo-4H,5H-furo[2,3-d]pyridazin-5-yl}-N-{[1,2,4]triazolo[4,3-a]pyridin-6-yl}acetamide], 1000 to 3000 nM; for `CC(C)c1nn(CC(=O)Nc2ccc3nncn3c2)c(=O)c2cc(C3CC3)oc12` [Compound 104, 2-[2-Cyclopropyl-4-oxo-7-(propan-2-yl)-4H,5H-furo[2,3-d]pyridazin-5-yl]-N-{[1,2,4]triazolo[4,3-a]pyridin-6-yl}acetamide], 100 to 1000 nM.
In turn, `CC(C)c1nn(CC(=O)Nc2ccc3nncn3n2)c(=O)c2cc(C3CC3)oc12` [Compound 105, 2-[2-Cyclopropyl-4-oxo-7-(propan-2-yl)-4H,5H-furo[2,3-d]pyridazin-5-yl]-N-{[1,2,4]triazolo[4,3-b]pyridazin-6-yl}acetamide] yielded a half-maximal inhibitory concentration (IC50) of 100 to 1000 nM.
The compound `Cc1nn(CC(=O)Nc2ccc3nncn3n2)c(=O)c2cc(C3CC3)oc12` [Compound 106, 2-{2-Cyclopropyl-7-methyl-4-oxo-4H,5H-furo[2,3-d]pyridazin-5-yl}-N-{[1,2,4]triazolo[4,3-b]pyridazin-6-yl}acetamide] came in with an IC50 of 100 to 1000 nM.
For `CCOc1cc2c(C(C)C)nn(CC(=O)Nc3ncccn3)c(=O)c2s1` [Compound 107, 2-[2-Ethoxy-7-oxo-4-(propan-2-yl)-6H,7H-thieno[2,3-d]pyridazin-6-yl]-N-(pyrimidin-2-yl)acetamide] the value was 1000 to 3000 nM.
